Test results: patent publication US7943658B2, “Indole indane amide compounds useful as CB2 agonists and method” (Bristol-Myers Squibb Company, priority 2007, dated 2011)

How the values were obtained:
[1] = target: T1, hCB2 receptors (Homo sapiens, UniProt P34972); test: Filtration binding assay, [3H]CP55,940 displacement; conditions: membrane proteins or CHO cells expressing hCB2, read-out: CB2 binding Ki
T1 construct: expressed in transfected cells; host or cells: CHO cells
Method: Compound dilutions were carried out in duplicate in binding buffer [25 mM HEPES pH 7.4, 150 mM NaCl, 1 mM EDTA, 2 mM MgCl2, 0.25% BSA, […]]. Mix binding buffer, membrane proteins (or CHO cells expressing hCB2 receptors) together. Dispense 75 ul of mixture into each well in 96 well plates. Add 1 ul of drug in DMSO, or DMSO alone into each well. 1:500-1000 dilute the hot ligand [^3H]CP55,940 (specific activity=120 Ci/mmol; PerkinElmer Life and Analytical Sciences) in binding buffer and add 25 ul per well with either 5 ug/well cell membrane or 50000 cells/well. After incubation at room temperature for 2 hours, transfer the binding reaction onto filtration plates (UniFilter CF/C filter plate presoaked with 0.3% polyethylenimine; PerkinElmer Life and Analytical Sciences) using Packard Cell Harvester. Wash the filter with quarter strength of PBS (1:4 dilution of regular PBS with H2O) 8 times. Air dry the filter, add 40 ul MicroScint20 into each well, seal the top, and count with the TopCount. Bound radioactivity was analyzed for Ki using nonlinear regression analysis (Excel Xfit) with the Kd values for [3H]CP55,940 determined from saturation experiments.

[2] = target: T2, CB2/CHO cell membrane proteins (Homo sapiens, UniProt P34972); test: GTPgS binding assay; type: biochemical; conditions: [35S]GTPγS, CB2/CHO cell membranes
T2 construct: expressed in transfected cells; host or cells: CHO cells (membranes)
Method: Add 50 ul of reaction mixture containing 2 ug of CB2/CHO cell membrane proteins, 10 ul WGA-PVT beads (20 mg/ml), and 5 uM GDP in assay buffer (20 mM HEPES pH 7.4, 100 mM NaCl, 1 mM EDTA, 10 mM MgCl2, 10 ug/ml saponin, 0.25% BSA, and 1 uM leupeptin) into each well in 96 well white plate (Corning 3693, VWR#29444-312). Add 1 ul of testing compound into test, 1 ul of DMSO into basal, 1 ul of 200 uM CP55,940 into 100% activation, 1 ul of 1 mM cold GTPγS into NSB wells, respectively. Dilute [^35S]GTPγS (1:12.5 pre-diluted 1 uCi/ul stock, NEG030H, NEN) 1:1350 in binding buffer and add 25 ul into each well (200 pM final). Incubate at RT for 90 min and spin the plate at 1000 rpm for 5 min before counting with TopCount for 1-2 min.

T2 sequence (P34972 whole entry): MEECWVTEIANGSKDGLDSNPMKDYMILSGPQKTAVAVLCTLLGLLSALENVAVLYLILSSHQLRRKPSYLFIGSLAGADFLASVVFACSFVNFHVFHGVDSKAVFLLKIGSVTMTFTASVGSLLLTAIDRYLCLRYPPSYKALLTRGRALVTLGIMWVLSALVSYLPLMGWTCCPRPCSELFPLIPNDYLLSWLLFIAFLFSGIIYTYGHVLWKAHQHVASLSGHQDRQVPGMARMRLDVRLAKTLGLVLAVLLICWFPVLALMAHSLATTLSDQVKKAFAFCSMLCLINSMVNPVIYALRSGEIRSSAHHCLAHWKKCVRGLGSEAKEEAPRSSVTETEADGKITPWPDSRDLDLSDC
T1 sequence (P34972 whole entry): as above

Ki [1]	EC50 [2]	Structure (SMILES)
0.71 ± 0.18 nM	2.2 ± 0.48 nM	CC1(C)Cc2ccc(C#N)cc2[C@@H]1NC(=O)c1cc2cc(Cl)ccc2[nH]1 [Example 2, (R)N-(6-Cyano-2,2-dimethyl-2,3-dihydro-1H-inden-1-yl)-5-chloro-1H-indole-2-carboxamide]
2.4 ± 1.1 nM	–	CC1(C)Cc2ccc(C#N)cc2[C@@H]1NC(=O)c1cc2ccccc2[nH]1 [Example 6, (R)—N-(6-Cyano-2,2-dimethyl-2,3-dihydro-1H-inden-1-yl)-1H-indole-2-carboxamide]
39 ± 14 nM	–	CC1(C)Cc2ccc(C#N)cc2[C@@H]1NC(=O)c1cc2cc(N)ccc2[nH]1 [Example 9, (R)-5-Amino-N-(6-cyano-2,2-dimethyl-2,3-dihydro-1H-inden-1-yl)-1H-indole-2-carboxamide]
39 ± 14 nM	7.8 ± 2.5 nM	CC1(C)Cc2ccc(C#N)cc2[C@@H]1NC(=O)c1cc2cc(Cl)ccc2n1CCN1CCOCC1 [Example 5, (R)-5-Chloro-N-(6-cyano-2,2-dimethyl-2,3-dihydro-1H-inden-1-yl)-1-(2-morpholinoethyl)-1H-indole-2-carboxamide]
1590 nM	–	CC1(C)Cc2ccc(C#N)cc2[C@H]1NC(=O)c1cc2cc(O)ccc2[nH]1 [Example 1A, (S)—N-(6-Cyano-2,2-dimethyl-2,3-dihydro-1H-inden-1-yl)-5-hydroxy-1H-indole-2-carboxamide]
3 nM	2.4 ± 0.55 nM	CC1(C)Cc2ccc(C#N)cc2[C@@H]1NC(=O)c1cc2cc(O)ccc2[nH]1 [Example 1, (R)—N-(6-Cyano-2,2-dimethyl-2,3-dihydro-1H-inden-1-yl)-5-hydroxy-1H-indole-2-carboxamide]
4.2 ± 1.6 nM	–	CC1(C)Cc2ccc(C#N)cc2[C@@H]1NC(=O)c1cc2cc([N+](=O)[O-])ccc2[nH]1 [Example 8, (R)—N-(6-Cyano-2,2-dimethyl-2,3-dihydro-1H-inden-1-yl)-5-nitro-1H-indole-2-carboxamide]
0.24 ± 0.12 nM	–	CC1(C)Cc2ccc(C#N)cc2[C@@H]1NC(=O)c1cc2cc(F)ccc2[nH]1 [Example 7, (R)—N-(6-Cyano-2,2-dimethyl-2,3-dihydro-1H-inden-1-yl)-5-fluoro-1H-indole-2-carboxamide]
7.6 ± 1.7 nM	4.5 ± 1.2 nM	Cn1c(C(=O)N[C@H]2c3cc(C#N)ccc3CC2(C)C)cc2cc(Cl)ccc21 [Example 3, (R)-5-Chloro-N-(6-cyano-2,2-dimethyl-2,3-dihydro-1H-inden-1-yl)-1-methyl-1H-indole-2-carboxamide]
35 ± 12 nM	–	COC(=O)c1ccc2c(c1)[C@H](NC(=O)c1cc3cc(Cl)ccc3[nH]1)C(C)(C)C2 [Example 11, (R)-Methyl-3-(5-chloro-1H-indole-2-carboxamido)-2,2-dimethyl-2,3-dihydro-1H-indene-5-carboxylate]
60 ± 26 nM	8.1 ± 2.2 nM	CN(C)CCn1c(C(=O)N[C@H]2c3cc(C#N)ccc3CC2(C)C)cc2cc(Cl)ccc21 [Example 4, (R)-5-Chloro-N-(6-cyano-2,2-dimethyl-2,3-dihydro-1H-inden-1-yl)-1-(2-(dimethylamino)ethyl)-1H-indole-2-carboxamide]
50 ± 16 nM	–	COCCNc1ccc2[nH]c(C(=O)N[C@H]3c4cc(C#N)ccc4CC3(C)C)cc2c1 [Example 10, (R)—N-(6-Cyano-2,2-dimethyl-2,3-dihydro-1H-inden-1-yl)-5-(2-methoxyethylamino)-1H-indole-2-carboxamide]
